Measurements: patent US9433659B2, “Enhanced glycemic control using Ad36E4orf1 and AKT1 inhibitor” (priority 2012, dated 2016)

B1: E4orf1: Adenovirus-36 E4orf1 protein, SEQ ID NO:2; expressed in 3T3-L1 cells by doxycycline induction or plasmid (protein, listed as Human adenovirus)
chain: MAESLYAFIDSPGGIAPVQEGASNRYIFFCPESFHIPPHGVILLHLRVSVLVPTGYQGRFMALNDYHARGILTQSDVIFAGRRHDLSVLLFNHTDRFLYVREGHPVGTLLLERVIFPSVRIATLV

Assays:
Format in all cases: cell-based
[1] = test system: 3T3-L1 adipocytes; test: Glucose uptake in 3T3-L1 adipocytes exposed to ATD; conditions: null vector, 10 μM TZD; increasing concentration of ATD (0, 1 or 5 μM)
Procedure: (§1) 3T3-L1 adipocytes were transfected with a null vector and exposed to 10 μM TZD, or transfected with a plasmid expressing E4orf1 protein. Both groups were exposed to 0, 1 or 5 μM ATD. […] The glucose uptake in adipocytes was PPARγ-dependent in the presence of TZD, but not when induced by E4orf1. Thus, by down-regulating AKT-1 signaling E4orf1 can be used to enhance glucose uptake by adipocytes, without further increasing lipid accumulation.

[2] = test system: adiponectin; test: Adiponectin expression by qRT-PCR in E4orf1 and pTRE cells
Procedure: (§2) Confluent E4orf1 and pTRE cells were exposed to adipogenic media to induce differentiation. In addition the cells were treated with 0 or 5 μM of 2ATD—a specific inhibitor of AKT1 signalling. This media was refreshed every two days for up to nine days. Basal and insulin stimulated 2DG uptake was determined 24 hours post induction in the presence of 1000 ng/ml of doxycycline expression of PPARγ and adiponectin—markers of adipogenesis, by qRT-PCR.

[3] = test system: PPARγ; test: PPARγ protein abundance in 3T3-L1 adipocytes; conditions: 0, 1 or 5 μM ATD
Procedure: FIG. 10 is a graph showing ATD inhibits PPARγ protein abundance. 3T3-L1 adipocytes were transfected with a null vector (V5), and exposed to 10 μM TZD, or transfected with a plasmid expressing E4orf1 protein. Both groups were exposed to […] ATD.
as §1

[4] = test system: 3T3-L1 cells; test: Adipogenic differentiation by oil red O staining in inducible E4orf1 stable cell line; conditions: 3T3-L1 cells expressing Ad36 E4orf1 on doxycycline; 0, 1, or 5 M of 2ATD; up to nine days
Procedure: FIG. 7A-F are photomicrographs of 3T3-L1 cells. […] FIGS. 7D-F show 3T3-L1 cells that express Ad36 E4orf1 when exposed to doxycycline, treated with 0, 1, or 5 M, respectively, of 2ATD—a specific inhibitor of AKT1 signalling.
3T3-L1 cells that express Ad36 E4orf1 when exposed to doxycycline (10) were generated. […] Confluent E4orf1 and pTRE cells were exposed to adipogenic media to induce differentiation. In addition the cells were treated with 0, 1 or 5 M of 2ATD—a specific inhibitor of AKT1 signalling. This media was refreshed every two days for up to nine days. Adipogenic differentiation was verified by oil red O staining (FIGS. 7A-F).

[5] = test system: PPARγ; test: PPARγ expression by qRT-PCR in E4orf1 and pTRE cells
Procedure: as §2

[6] = test system: E4orf1 and pTRE inducible stable cells; test: Basal and insulin stimulated glucose (2DG) uptake in presence of 2-ATD
Procedure: E4orf1 and pTRE inducible stable cells were exposed to adipogenic media to induce differentiation and treated with 0 or 5 μM of 2-ATD. Basal and insulin stimulated 2DG was determined 24 hours after exposure to doxycycline (1000 ng/ml), in presence or absence of insulin (*p<0.05).

[7] = E4orf1 expressing cells, 0 or 5 μM of 2ATD
[8] = effect of E4orf1 expression (doxycycline 1000 ng/ml), qRT-PCR

Molecule | glucose uptake [1] | adiponectin expression [2, 7] | PPARγ protein abundance [3] | adipogenesis and lipid accumulation (oil red O staining) [4] | PPARγ expression [5, 7] | PPARγ expression ([5]; pTRE cells, 0 or 5 μM of 2ATD) | glucose uptake (2DG) despite 2-ATD treatment ([6]; E4orf1 expressing cells treated with 5 μM of 2-ATD) | glucose uptake (2DG) ([6]; E4orf1 expression compared to pTRE, 24 hours after doxycycline (1000 ng/ml), basal and insulin stimulated) | adiponectin expression [2, 8] | PPARγ expression [5, 8]
Nc1nncs1 [2-ATD, 2-Aminothiadiazole] | significantly reduced glucose uptake | significantly reduced | reduced PPARγ protein abundance | blocked adipogenesis and lipid accumulation | significantly reduced PPARγ expression | significantly reduced PPARγ expression |  |  |  | 
B1 |  |  |  |  |  |  | continued to show significantly greater glucose uptake | increased glucose uptake compared to that in pTRE | significantly increased the expression of PPARγ and adiponectin | significantly increased the expression of PPARγ and adiponectin
